Experimental data from patent US7196110B2, “N-substituted tricyclic 3-aminopyrazoles as inhibitors for the treatment of cell proliferative disorders” (Janssen Phamaceutica N.V., priority 2002, dated 2007).
Read-outs that look alike come from different tables or passages of the source.

Target: T1, PDGF-receptor beta enzyme comprising the tyrosine kinase domain (Homo sapiens, UniProt P09619)
T1 construct: from amino acid 545 to 1106 of GenBank Access NO: AAA36427
Assay: Inhibition of PDGF-receptor kinase activity (cell-free, PLC1 peptide, 33P Flashplate)
Assay type: biochemical
Conditions: for inhibition at 10 µM / Percent Inhibition @ 10 uM: compound at 10 uM; for inhibition at 10 µM: read-out: Percent Inhibition @ 10 uM
Experimental: PDGF-R kinase activity was assayed by its ability to phosphorylate one of its target proteins, PLCγ, in a cell-free system, in particular, a PLC1 peptide comprising the tyrosine residue where the phosphorylation occurs was used for the assay.
10× Kinase Buffer (500 mM Tris-HCl pH=8, 100 mM MgCl2, 1 mM Na3VO4); 10 mM DTT (final concentration at 1 mM in assay); 10 mM ATP (final concentration at 5 μM in assay); ^33P-γ-ATP (Cat. No.: NEG/602H. 2000-3000 Ci/mmol) purchased from NEN; Purified, soluble, recombinant PDGF-receptor beta enzyme comprising the tyrosine kinase domain (from amino acid 545 to 1106 of GenBank Access NO: AAA36427 ) at 0.4 mg/mL; Enzyme Dilution Buffer (50 mM Tris-HCl pH=8.0, 0.1% BSA); Wash/Stop Buffer (PBS +100 mM EDTA); NEN Streptavidin Flashplates (Cat. No.: SMP-103) which binds to the biotinylated PLC1 peptide but not the PDGF-R enzyme; PLC1 peptide (Biotin-[…]-Amide) at 1 mM in 50 mM Tris-HCL with pH of 8.0.
Reagents were first mixed according the following regimen:
The above reaction mixture was dispensed into each well of a Flashplate at 70 μl/well. To test the effect of a compound on PDGF-R kinase activity, the test compound either in a fixed concentration or in serially diluted concentrations in 100% DMSO was added to appropriate wells at 1 μl/well.
Enzyme PDGF-R was diluted in Enzyme dilution buffer as following:
The kinase reaction was initiated by adding 30 μl of diluted PDGF-R enzyme solution to each well on the Flashplate containing hot ATP and PLC1, except wells of column 12 rows E through H, which were used to calculate the plate background. The Flashplate was swirled to mix and was incubated at 30° C. for 60 minutes. Then, the reaction mixture was discarded and the Flashplate was washed 3 times each with 200 μl Wash/Stop Buffer. Subsequently, each well on the Flashplate was filled with 200 μl of Wash/Stop buffer. The amount of ^33P retained in each well was measured using a Packard TopCount after the plate was sealed with a transparent plate sealer.
The percentage of inhibition of the test compound on PDGF-R kinase activity is defined as […].
In order to test the potency of inhibition of present compounds, an IC50 for an individual compound was measured using the above procedure. As used herein, the IC50 for PDGF-R kinase activity refers to the concentration of an inhibitor at which the activity of the PDGF-R kinase is reduced by one-half as compared with reactions containing no inhibitor.

[1] = PDGF-R kinase activity, read-out: IC50
[2] = read-out: IC50 (μM) on PDGF-R kinase activity

T1 sequence (P09619 545-1106): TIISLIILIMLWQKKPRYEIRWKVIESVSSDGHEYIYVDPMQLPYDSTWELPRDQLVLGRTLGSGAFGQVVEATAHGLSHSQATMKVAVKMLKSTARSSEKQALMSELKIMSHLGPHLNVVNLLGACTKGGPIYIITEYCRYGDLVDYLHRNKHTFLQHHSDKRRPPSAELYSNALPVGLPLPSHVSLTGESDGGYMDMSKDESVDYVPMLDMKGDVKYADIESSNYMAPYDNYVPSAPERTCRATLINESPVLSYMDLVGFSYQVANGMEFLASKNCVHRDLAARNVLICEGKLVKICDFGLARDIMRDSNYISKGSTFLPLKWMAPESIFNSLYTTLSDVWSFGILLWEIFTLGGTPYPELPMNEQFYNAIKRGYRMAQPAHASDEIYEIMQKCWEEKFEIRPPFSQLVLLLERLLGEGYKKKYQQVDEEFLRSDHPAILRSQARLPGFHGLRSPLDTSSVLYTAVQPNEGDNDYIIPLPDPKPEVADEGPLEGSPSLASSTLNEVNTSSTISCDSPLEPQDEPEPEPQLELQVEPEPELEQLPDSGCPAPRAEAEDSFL

inhibition at 10 µM (PDGF-R kinase activity) [%]	IC50 [1] [µM]	Percent Inhibition @ 10 uM (PDGF-R kinase activity) [%]	IC50 [2] [µM]	Compound
74.5	1.32			COc1cccc([C@H](C)Nc2[nH]nc3c2Cc2cc(OC)c(OC)cc2-3)c1 (single isomer, unassigned) [Compound 324, (6,7-Dimethoxy-2,4-dihydro-indeno[1,2-c]pyrazol-3-yl)-[1-(3-methoxy-phenyl)-ethyl]-amine]
	0.0386	100		CCC1c2cc(OC)c(OC)cc2-c2[nH]nc(Nc3cccc(Br)c3)c21 (single isomer, unassigned) [Compound 482, (3-Bromo-phenyl)-(4-ethyl-6,7-dimethoxy-1,4-dihydro-indeno[1,2-c]pyrazol-3-yl)-amine]
	4.97	78.5		CCC1c2cc(OC)c(OC)cc2-c2[nH]nc(Nc3cccc(Br)c3)c21 (single isomer, unassigned) [Compound 483, (3-Bromo-phenyl)-(4-ethyl-6,7-dimethoxy-1,4-dihydro-indeno[1,2-c]pyrazol-3-yl)-amine]
	0.0208	102		CCOc1cccc(Nc2[nH]nc3c2C(C)c2cc(OC)c(OC)cc2-3)c1 (single isomer, unassigned) [Compound 554, (6,7-Dimethoxy-4-methyl-2,4-dihydro-indeno[1,2-c]pyrazol-3-yl)-(3-ethoxy-phenyl)-amine]
	0.0104	98		CCOc1cccc(Nc2[nH]nc3c2C(CC)c2cc(OC)c(OC)cc2-3)c1 (single isomer, unassigned) [Compound 556, (3-Ethoxy-phenyl)-(4-ethyl-6,7-dimethoxy-2,4-dihydro-indeno[1,2-c]pyrazol-3-yl)-amine]
102	0.0371			COc1cc2c(cc1OC)C(C)c1c-2n[nH]c1Nc1cccnc1Cl (single isomer, unassigned) [Compound 559, (2-Chloro-pyridin-3-yl)-(6,7-dimethoxy-4-methyl-2,4-dihydro-indeno[1,2-c]pyrazol-3-yl)-amine]
	5.1	64		CCOc1cccc(Nc2[nH]nc3c2C(C)c2cc(OC)c(OC)cc2-3)c1 (single isomer, unassigned) [Compound 569, (6,7-Dimethoxy-4-methyl-2,4-dihydro-indeno[1,2-c]pyrazol-3-yl)-(3-ethoxy-phenyl)-amine]
		66	3.89	CCOc1cccc(Nc2[nH]nc3c2C(CC)c2cc(OC)c(OC)cc2-3)c1 (single isomer, unassigned) [Compound 571, (3-Ethoxy-phenyl)-(4-ethyl-6,7-dimethoxy-2,4-dihydro-indeno[1,2-c]pyrazol-3-yl)-amine]
102			0.429	CCC1c2cc(OC)c(OC)cc2-c2n[nH]c(NCc3c(Cl)cccc3Cl)c21 (single isomer, unassigned) [Compound 585, (2,6-Dichloro-benzyl)-(4-ethyl-6,7-dimethoxy-2,4-dihydro-indeno[1,2-c]pyrazol-3-yl)-amine]
100			0.0278	COc1cc2c(cc1OC)C(C)c1c-2n[nH]c1NCc1c(Cl)cccc1Cl (single isomer, unassigned) [Compound 586, (2,6-Dichloro-benzyl)-(6,7-dimethoxy-4-methyl-2,4-dihydro-indeno[1,2-c]pyrazol-3-yl)-amine]
78			0.547	CCC1c2cc(OC)c(OC)cc2-c2n[nH]c(Nc3cccnc3Cl)c21 (single isomer, unassigned) [Compound 607, (2-Chloro-pyridin-3-yl)-(4-ethyl-6,7-dimethoxy-2,4-dihydro-indeno[1,2-c]pyrazol-3-yl)-amine]
91	0.317			c1ccc(Nc2[nH]nc3c2Cc2ccccc2-3)cc1 [Compound 1]
90	0.157			Clc1ccc(Nc2[nH]nc3c2Cc2ccccc2-3)cc1 [Compound 3, (4-Chloro-phenyl)-(2,4-dihydro-indeno[1,2-c]pyrazol-3-yl)-amine]
91				COc1cc2c(cc1OC)-c1n[nH]c(Nc3ccc(Cl)cc3)c1C2 [Compound 5, (4-Chloro-phenyl)-(6,7-dimethoxy-2,4-dihydro-indeno[1,2-c]pyrazol-3-yl)-amine]
75	0.131			COc1ccc(Nc2[nH]nc3c2Cc2cc(OC)c(OC)cc2-3)cc1 [Compound 6, (6,7-Dimethoxy-2,4-dihydro-indeno[1,2-c]pyrazol-3-yl)-(4-methoxy-phenyl)-amine]
92	0.217			COc1ccc2c(c1)Cc1c-2n[nH]c1Nc1ccccc1 [Compound 7, (6-Methoxy-2,4-dihydro-indeno[1,2-c]pyrazol-3-yl)-phenyl-amine]
89				COc1cc2c(cc1OC)-c1n[nH]c(Nc3ccccc3Cl)c1C2 [Compound 9, (2-Chloro-phenyl)-(6,7-dimethoxy-2,4-dihydro-indeno[1,2-c]pyrazol-3-yl)-amine]
68	2.07			CCOC(=O)c1ccc(Nc2[nH]nc3c2Cc2cc(OC)c(OC)cc2-3)cc1 [Compound 10, 4-(6,7-Dimethoxy-2,4-dihydro-indeno[1,2-c]pyrazol-3-ylamino)-benzoic acid ethyl ester]
79	1.92			COc1cc2c(cc1OC)-c1n[nH]c(Nc3ccccc3OC(F)(F)F)c1C2 [Compound 15, (6,7-Dimethoxy-2,4-dihydro-indeno[1,2-c]pyrazol-3-yl)-(2-trifluoromethoxy-phenyl)-amine]
79	4			COc1cc2c(cc1OC)-c1n[nH]c(Nc3ccc(OC(F)(F)F)cc3)c1C2 [Compound 16, (6,7-Dimethoxy-2,4-dihydro-indeno[1,2-c]pyrazol-3-yl)-(4-trifluoromethoxy-phenyl)-amine]
79	3.54			COc1cc2c(cc1OC)-c1n[nH]c(Nc3ccc(Cl)cc3Cl)c1C2 [Compound 17, (2,4-Dichloro-phenyl)-(6,7-dimethoxy-2,4-dihydro-indeno[1,2-c]pyrazol-3-yl)-amine]
65	0.23			COc1cc2c(cc1OC)-c1n[nH]c(Nc3ccc(Cl)c(Cl)c3)c1C2 [Compound 18, (3,4-Dichloro-phenyl)-(6,7-dimethoxy-2,4-dihydro-indeno[1,2-c]pyrazol-3-yl)-amine]
91	0.174			COc1cc2c(cc1OC)-c1n[nH]c(Nc3cc(Cl)cc(Cl)c3)c1C2 [Compound 19, (3,5-Dichloro-phenyl)-(6,7-dimethoxy-2,4-dihydro-indeno[1,2-c]pyrazol-3-yl)-amine]
77	1.1			COc1cc2c(cc1OC)-c1n[nH]c(Nc3cccc(Cl)c3Cl)c1C2 [Compound 20, (2,3-Dichloro-phenyl)-(6,7-dimethoxy-2,4-dihydro-indeno[1,2-c]pyrazol-3-yl)-amine]
103	0.121			Clc1ccc2c(c1)Cc1c-2n[nH]c1Nc1ccccc1 [Compound 21, (6-Chloro-2,4-dihydro-indeno[1,2-c]pyrazol-3-yl)-phenyl-amine]

Compound	inhibition at 10 µM (PDGF-R kinase activity) [%]	IC50 [1] [µM]	Percent Inhibition @ 10 uM (PDGF-R kinase activity) [%]	IC50 [2] [µM]
CCC1c2cc(OC)c(OC)cc2-c2n[nH]c(Nc3cccc(Br)c3)c21 (single isomer, unassigned) [Compound 555, *R-(3-Bromo-phenyl)-(6,7-dimethoxy-4-ethyl-2,4-dihydro-indeno[1,2-c]pyrazol-3-yl)-amine]	97.5	0.0209		
COc1cc2c(cc1OC)C(C)c1c-2n[nH]c1Nc1cccc(Br)c1 (single isomer, unassigned) [Compound 568, *S-(3-Bromo-phenyl)-(6,7-dimethoxy-4-methyl-2,4-dihydro-indeno[1,2-c]pyrazol-3-yl)-amine]	78	0.79		
CCC1c2cc(OC)c(OC)cc2-c2n[nH]c(Nc3cccc(Br)c3)c21 (single isomer, unassigned) [Compound 570, *S-(3-Bromo-phenyl)-(6,7-dimethoxy-4-ethyl-2,4-dihydro-indeno[1,2-c]pyrazol-3-yl)-amine]			77.5	2.05
